Assay results published in publication PMC8777785, “Antimicrobial Activity of Snake β-Defensins and Derived Peptides” (Toxins, 2021).
In brackets after ≈: the same amount, converted by molar mass. Residues, ends and D or L forms follow the SMILES beside them.

Columns and labels:
Citrobacter freundii = experiment: Microbroth dilution assay, MIC; format: cell-based; settings: short derived peptides, 2.75 to 700 µg/mL, overnight 37 °C, read at 600 nm, three independent experiments
Description: (§1) The β-defensins were tested using a microbroth dilution assay. It consists of incubating the bacteria (4.105 colony-forming unit—CFU/mL) and the peptide (from 1 to 512 µg/mL) in liquid broth. After the incubation at 37 °C during the night, the bacterial growth was detected by spectrophotometry at 600 nm. If the measure is similar to the broth, it […]. […] The β-defensins were tested against B. jararaca oral flora because it would be of biological and medical interest. In addition, we tested on E. coli ATCC 25922 and M. luteus that are common Gram-negative and Gram-positive bacteria used in antibacterial tests.
(§2) The antibacterial activity of the alkylated peptides was tested against Gram-negative (G−) bacteria (Klebsiella pneumonia, Serratia marcescens, Morganella morganii, Providencia rettgeri, Citrobacter freundii, Escherichia coli ATCC 25922 and Gram-positive (G+) bacteria (Micrococcus luteus A270 and Staphylococcus aureus) using microbroth assay. In a 96-well plate, 90 µL of 10% tryptone soy broth (TSB) with 4 × 10^5 colony-forming unit (CFU/mL) were mixed with serial twofold dilutions of β-defensins duplicate in concentrations from 512 to 1 µg/mL. The derived peptides coded as PS1, PS2, PS3, PS5, and PS6 (Table 1) were tested against these bacteria in serial twofold dilutions with concentrations bellow 700 µg/mL. After overnight incubation at 37 °C, the turbidity of the bacterial culture was read at 600 nm (Epoch microplate reader, Biotek). The minimal inhibitory concentration (MIC) of each peptide was determined as the lowest concentration that results in no visible bacterial growth. The MIC resulted from three independent experiments. The bacteria K. pneumonia, S. marcescens, M. morganii, P. rettgeri, C. freundii, M. luteus A270 and S. aureus were isolated from Bothrops jararaca buccal flora and kindly provided by Dr. Márcia R. Franzolin (Laboratory of Bacteriology—Instituto Butantan). M. luteus was kindly provided by Dr. Pedro I. da Silva Jr. (Laboratory of Applied Toxinology—Instituto Butantan).

Staphylococcus aureus = experiment: Microbroth dilution assay, MIC; format: cell-based; settings: short derived peptides, 2.75 to 700 µg/mL, overnight 37 °C, read at 600 nm, three independent experiments
Description: as §1, §2

Micrococcus luteus A270 = experiment: Microbroth dilution assay, MIC; format: cell-based; settings: short derived peptides, 2.75 to 700 µg/mL, overnight 37 °C, read at 600 nm, three independent experiments
Description: as §1, §2

[1] = system: Escherichia coli ATCC 25922; experiment: Microbroth dilution assay, MIC; format: cell-based; settings: short derived peptides, 2.75 to 700 µg/mL, overnight 37 °C, read at 600 nm, three independent experiments
Description: as §1, §2

Klebsiella pneumonia = experiment: Microbroth dilution assay, MIC; format: cell-based, Klebsiella pneumoniae; settings: short derived peptides, 2.75 to 700 µg/mL, overnight 37 °C, read at 600 nm, three independent experiments
Description: as §1, §2

[2] = system: Trichophyton rubrum (IOC 4527); experiment: Resazurin microtiter assay plate, antifungal MIC90; format: cell-based; settings: resazurin colour change, RPMI 1640, 1 to 250 μM, 28 °C, 24–72 h; three independent experiments
Description: (§3) The derived peptides were also tested against fungi species using the classical resazurin microtiter assay plate method. It is based on the color change of the rezazurin dye that in blue indicates the absence of growth in at least 90%, and pink refers to microorganism growth. MIC is determined as the minimal concentration of the sample that can prevent the color change from blue to pink and refers to the inhibition of 90% of microorganisms.
(§4) The antifungal activity was evaluated by the microdilution assay as previously described on clinical strains of Candida albicans (IOC 4525), Cryptococcus neoformans (IOC 4528), Trichophyton rubrum (IOC 4527) and Aspergillus fumigatus (IOC 4526). The fungi were cultivated in potato dextrose agar at 28 °C according to the Clinical and Laboratory Standards Institute recommendations. Fungal suspensions were prepared in RPMI 1640 culture media; the CFU/mL was adjusted to 0.5–2.5 × 10^3 for yeasts (C. albicans and C. neoformans) and 0.4–5 × 10^4 CFU/mL for filamentous fungi (T. rubrum e A. fumigatus), by comparison with a standard curve previously stablished in our laboratory.
(§5) The peptides PS1, PS2, PS, PS3, PS4, PS5 and PS6 at 1 mM in acetic acid at 0.01% were diluted in RPMI 1640 culture media at concentrations ranging from 1 to 250 μM. Amphotericin B (AMB) at concentrations below 15 μg/mL (16 μM) and acetic acid from 0.0002 to 0.0025% was used as control.
(§6) The fungi suspensions were added to a 96 well plate (100 µL/well) and the samples (100 µL) in different concentrations were added to each well. The plate was incubated at 28 °C for 24–72 h, and 24 h before the end of the assay 25 µL of the rezazurin dye at 0.02% were added to each well. The minimal inhibitory concentration (MIC90) was defined as the lowest concentration that prevents the rezazurin’s change in color from blue to pink due to the inhibition of at least 90% of the microorganism’s growth. The assays were performed in three independent experiments.

[3] = system: Aspergillus fumigatus (IOC 4526); experiment: Resazurin microtiter assay plate, antifungal MIC90; format: cell-based; settings: resazurin colour change, RPMI 1640, 1 to 250 μM, 28 °C, 24–72 h; three independent experiments
Description: as §3, §4, §5, §6

[4] = system: Candida albicans (IOC 4525); experiment: Resazurin microtiter assay plate, antifungal MIC90; format: cell-based; settings: resazurin colour change, RPMI 1640, 1 to 250 μM, 28 °C, 24–72 h; three independent experiments
Description: as §3, §4, §5, §6

[5] = system: Cryptococcus neoformans (IOC 4528); experiment: Resazurin microtiter assay plate, antifungal MIC90; format: cell-based; settings: resazurin colour change, RPMI 1640, 1 to 250 μM, 28 °C, 24–72 h; three independent experiments
Description: as §3, §4, §5, §6

| SMILES | MIC, C. freundii (Citrobacter freundii) [µM] | MIC, S. aureus (Staphylococcus aureus) [µM] | MIC, M. luteus (Micrococcus luteus A270) [µM] | MIC, E. coli [1] [µM] | MIC, K. pneumoniae (Klebsiella pneumonia) [µM] | MIC90, Trichophyton rubrum [2] [µM] | MIC90, Aspergillus fumigatus [3] [µM] | MIC90, Candida albicans [4] [µM] | MIC90, Cryptococcus neoformans [5] [µM] |
| --- | --- | --- | --- | --- | --- | --- | --- | --- | --- |
| N=C(N)NCCC[C@H](NC(=O)[C@H](Cc1c[nH]c2ccccc12)NC(=O)[C@H](CCCNC(=N)N)NC(=O)[C@@H](N)CO)C(=O)N[C@@H](Cc1c[nH]c2ccccc12)C(=O)N[C@@H](CCCCN)C(=O)N[C@@H](CO)C(=O)N[C@@H](CO)C(=O)N[C@@H](CCCCN)C(=O)N[C@@H](CCCCN)C(=O)NCC(=O)N[C@@H](CO)C(=O)NCC(=O)O [PS1] (H-SRWRWKSSKKGSG-OH) | 113 (≈ 175 µg/mL) | 56.5 (≈ 87.6 µg/mL) | 28.4 (≈ 44 µg/mL) | 56.5 (≈ 87.6 µg/mL) | >452 | >250 | >250 | >250 | >250 |
| CSCC[C@H](NC(=O)[C@H](CCC(N)=O)NC(=O)[C@@H](N)CO)C(=O)NCC(=O)N[C@@H](CCCNC(=N)N)C(=O)N[C@@H](CCSC)C(=O)N[C@@H](CO)C(=O)N[C@@H](CO)C(=O)N[C@@H](CCCNC(=N)N)C(=O)N[C@@H](CCCNC(=N)N)C(=O)N[C@@H](CCCNC(=N)N)C(=O)N[C@@H](Cc1ccccc1)C(=O)NCC(=O)N[C@@H](CCCCN)C(=O)O [PS2] (H-SQMGRMSSRRRFGK-OH) | >415 | 415 (≈ 699 µg/mL) | 26.1 (≈ 44 µg/mL) | 415 (≈ 699 µg/mL) | >415 | >250 | >250 | >250 | >250 |
| N=C(N)NCCC[C@H](NC(=O)CNC(=O)[C@@H]1CCCN1C(=O)CNC(=O)[C@@H](N)CO)C(=O)N[C@@H](CCCNC(=N)N)C(=O)N[C@@H](CO)C(=O)N[C@@H](CO)C(=O)N[C@@H](CCCNC(=N)N)C(=O)N[C@@H](CCCNC(=N)N)C(=O)N[C@@H](CCCNC(=N)N)C(=O)N[C@@H](CCCCN)C(=O)O [PS3] (H-SGPGRRSSRRRK-OH) | >500 | 125 (≈ 175 µg/mL) | 31.5 (≈ 44.1 µg/mL) | >500 | >500 | >250 | >250 | >250 | >250 |
| CSCC[C@H](NC(=O)[C@H](CCC(N)=O)NC(=O)[C@@H](N)CO)C(=O)NCC(=O)N[C@@H](CCC(N)=O)C(=O)N[C@@H](CCSC)C(=O)N[C@@H](CO)C(=O)N[C@@H](CO)C(=O)N[C@@H](CCCNC(=N)N)C(=O)N[C@@H](CCCNC(=N)N)C(=O)N[C@@H](CCCNC(=N)N)C(=O)N[C@@H](Cc1ccccc1)C(=O)NCC(=O)N[C@@H](CCCCN)C(=O)O [PS4] (H-SQMGQMSSRRRFGK-OH) | >423 | >423 | 26.6 (≈ 44 µg/mL) | >423 | >423 | >250 | >250 | >250 | >250 |
| N=C(N)NCCC[C@H](NC(=O)CNC(=O)[C@@H]1CCCN1C(=O)CNC(=O)[C@@H](N)CO)C(=O)N[C@@H](CCCNC(=N)N)C(=O)N[C@@H](CO)C(=O)N[C@@H](CO)C(=O)N[C@@H](CCCNC(=N)N)C(=O)N[C@@H](CCCNC(=N)N)C(=O)N[C@@H](CCCNC(=N)N)C(=O)N[C@@H](Cc1c[nH]c2ccccc12)C(=O)N[C@@H](CCCCN)C(=O)O [PS5] (H-SGPGRRSSRRRWK-OH) | 110 (≈ 174 µg/mL) | 27.7 (≈ 43.9 µg/mL) | 13.9 (≈ 22 µg/mL) | 55.2 (≈ 87.5 µg/mL) | 27.7 (≈ 43.9 µg/mL) | >250 | >250 | >250 | >250 |
| N=C(N)NCCC[C@H](NC(=O)[C@H](Cc1c[nH]c2ccccc12)NC(=O)[C@H](CCCNC(=N)N)NC(=O)[C@@H](N)CO)C(=O)N[C@@H](Cc1c[nH]c2ccccc12)C(=O)N[C@@H](CCCCN)C(=O)N[C@@H](CO)C(=O)O [PS6] (H-SRWRWKS-OH) |  | 349 (≈ 351 µg/mL) | 43.8 (≈ 44 µg/mL) | 697 (≈ 701 µg/mL) | >697 | >250 | >250 | >250 | >250 |
